Measurements from patent publication US8748462B2, “Spirocyclic GPR40 modulators” (Amgen Inc., priority 2008, dated 2014).

Key:
[1] = target: T1, human GPR40 (Homo sapiens, UniProt O14842); test: Cell-based aequorin assay; settings: CHO cells stably transfected with GPR40 and aequorin; 0.01% HSA
T1 construct: expressed in transfected cells; host or cells: CHO cells stably transfected with GPR40 and Aequorin
Experimental: Cell-based aequorin assays were employed to characterize the modulatory activity of compounds on the GPR40 signaling pathway. In an exemplary assay, CHO cells were stably transfected with both GPR40 and Aequorin (Euroscreen). Cells were detached from the tissue culture dish with 2 mL of trypsin (0.25% (w/v)). Trypsinization was halted with 28 mL of Hanks Buffered Salt Solution containing 20 mM Hepes (H/HBSS) and 0.01% fatty acid-free human serum albumin (HSA). Coelantrazine is added to 1 ug/mL, and the cells were incubated for 2 hours at room temperature. Compounds were dissolved in DMSO for preparation of 10 mM stock solutions. Compounds were diluted in H/HBSS containing 0.01% HSA. Serial dilutions of the test compounds were prepared to determine dose response.
Aequorin luminescence measurements were made using an EG&G Berthold 96-well luminometer, and the response was measured over a 20 second interval after cells and compounds were mixed. The maximum relative light units was plotted to determine dose response. The EC50 (effective concentration to reach 50% maximal response) was determined from the dose response plot.

[2] = target: T1, human GPR40; test: Inositol phosphate accumulation assay; type: cell-based; settings: A9 cell line stably transfected with GPR40; 1 hour at 37° C.; read-out: IP3 EC50
Experimental: An A9 cell line stably transfected with GPR40 (A9_GPR40) was used in IP accumulation assays. A9_GPR40 cells were plated in 96-well plates containing 20,000 cells/well in DMEM containing 10% FBS. After the cells attached to the well surface, the media was replaced with inositol free DMEM containing 10% dialyzed FBS and 1 μCi, mL ^3H-inositol and incubated for 16 hours. Compounds were diluted in HBSS/10 mM LiCl containing a desired amount of HSA and added directly to cells. Following 1 hour incubation at 37° C., the media was replaced with 100 μL of 20 mM formic acid to quench the reaction. 50 μL of the extract was then added to 100 μL of SPA beads, incubated overnight, and measured on a TopCount the following day.

T1 sequence (O14842 whole entry): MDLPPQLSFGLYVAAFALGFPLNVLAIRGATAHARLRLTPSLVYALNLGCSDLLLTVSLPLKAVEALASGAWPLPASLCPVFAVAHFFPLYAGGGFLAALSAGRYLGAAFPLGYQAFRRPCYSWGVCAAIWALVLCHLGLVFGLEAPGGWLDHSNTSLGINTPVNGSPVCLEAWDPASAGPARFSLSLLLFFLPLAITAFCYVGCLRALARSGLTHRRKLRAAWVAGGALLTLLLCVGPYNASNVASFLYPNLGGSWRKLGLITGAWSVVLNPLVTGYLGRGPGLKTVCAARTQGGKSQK

Compound	EC50 [1] [nM]	EC50 [2] [nM]
COc1cc(-c2ccc(COc3ccc4c(c3)[C@]3(CCC4)C[C@H]3C(=O)O)cc2[C@H](OC)C(C)(C)C)c(Cl)cn1 (racemic) [Example 139]	100 to 1000	< 10
CCCCOc1cc(COc2ccc3c(c2)[C@]2(CC3)C[C@H]2C(=O)O)ccc1-c1cc(OC)ccc1F [Example 24]	100 to 1000	10 to 100
COc1ccc(F)c(-c2ccc(COc3ccc4c(c3)[C@]3(CCC4)C[C@H]3C(=O)O)cc2C2=CCCC2(C)C)c1 [Example 49]	100 to 1000	10 to 100
COc1ccc(F)c(-c2ccc(COc3ccc4c(c3)[C@]3(CC4)C[C@H]3C(=O)O)cc2[C@H]2CCCC2(C)C)c1 (single isomer, unassigned) [Example 11]	10 to 100	< 10
COCCOc1ccc(COc2ccc3c(c2)[C@]2(CCC3)C[C@H]2C(=O)O)cc1[C@@H]1CCCC1(C)C (single isomer, unassigned) [Example 131]	1000 to 10000	100 to 1000
COc1cc(-c2ccc(COc3ccc4c(c3)C3(CCC4)CCC3C(=O)O)cc2[C@@H]2CCCC2(C)C)c(F)cn1 (single isomer, unassigned) [Example 156]	100 to 1000	10 to 100
COc1ccc(F)c(-c2ccc(COc3ccc4c(c3)[C@]3(CCC4)C[C@H]3C(=O)O)cc2[C@H]2CCCC2(C)C)c1 (single isomer, unassigned) [Example 47]	10 to 100	< 10
COc1ccc(F)c(-c2ccc(COc3ccc4c(c3)C3(CCC4)CCC3C(=O)O)cc2C(OC)C(C)(C)C)c1 (single isomer, unassigned) [Example 155]	100 to 1000	< 10
COc1cc(-c2cc(F)c(COc3ccc4c(c3F)[C@]3(CCC4)C[C@H]3C(=O)O)cc2[C@H]2CCCC2(C)C)c(F)cn1 (single isomer, unassigned) [Example 57]	100 to 1000	< 10
COc1ccc(F)c(-c2ccc(COc3ccc4c(c3)[C@]3(CC4)C[C@H]3C(=O)O)cc2C2(OC)CCCC2)c1 [Example 22]	100 to 1000	10 to 100
COc1ccc(F)c(-c2ccc(COc3ccc4c(c3)[C@]3(CC4)C[C@H]3C(=O)O)cc2CC(C)(C)C)c1 [Example 13]	10 to 100	< 10
COc1cc(-c2cc(F)c(COc3ccc4c(c3)[C@]3(CC4)C[C@H]3C(=O)O)cc2[C@@H]2CCCC2(C)C)c(F)cn1 (single isomer, unassigned) [Example 17]	10 to 100	< 10
COc1ccc(F)c(-c2ccc(COc3ccc4c(c3)[C@]3(CC4)C[C@H]3C(=O)O)cc2C2=CCCC2(C)C)c1 [Example 1]	100 to 1000	< 10
COc1cc(-c2ccc(COc3ccc4c(c3F)[C@]3(CC4)C[C@H]3C(=O)O)cc2[C@@H]2CCCC2(C)C)c(Cl)cn1 (stereo in doubt) [Example 125]	100 to 1000	10 to 100
COc1ccc(F)c(-c2cc(F)c(COc3ccc4c(c3)[C@]3(CCC4)C[C@H]3C(=O)O)cc2[C@H]2CCCC2(C)C)c1 (single isomer, unassigned) [Example 45]	100 to 1000	< 10
COc1ccc(F)c(-c2ccc(COc3ccc4c(c3)[C@]3(CC4)C[C@H]3C(=O)O)cc2[C@@H](OC)C(C)(C)C)c1 (single isomer, unassigned) [Example 12]	10 to 100	< 10
COc1cc(-c2ccc(COc3ccc4c(c3F)[C@]3(CC4)C[C@H]3C(=O)O)cc2[C@@H](OC)C(C)(C)C)c(F)cn1 (single isomer, unassigned) [Example 30]	10 to 100	< 10
